Measured values: ChEMBL document CHEMBL3526033, “Identification of human liver cytochrome P450 enzymes involved in the metabolism of SCH 530348 (Vorapaxar), a potent oral thrombin protease-activated receptor 1 antagonist” (Drug Metab Dispos, 2011)

Key:
Type in all cases: ADME
Cytochrome P450 4F3 [1] = molecular target: T1, Cytochrome P450 4F3 (Homo sapiens, UniProt Q08477); assay: Activity of human recombinant CYP4F3B assessed as enzyme-mediated drug metabolism treated with 25 uM vorapaxar after 120 mins by LC-MS/MS analysis in presence of NADPH; conditions: 2 h
T1 sequence (Q08477 whole entry): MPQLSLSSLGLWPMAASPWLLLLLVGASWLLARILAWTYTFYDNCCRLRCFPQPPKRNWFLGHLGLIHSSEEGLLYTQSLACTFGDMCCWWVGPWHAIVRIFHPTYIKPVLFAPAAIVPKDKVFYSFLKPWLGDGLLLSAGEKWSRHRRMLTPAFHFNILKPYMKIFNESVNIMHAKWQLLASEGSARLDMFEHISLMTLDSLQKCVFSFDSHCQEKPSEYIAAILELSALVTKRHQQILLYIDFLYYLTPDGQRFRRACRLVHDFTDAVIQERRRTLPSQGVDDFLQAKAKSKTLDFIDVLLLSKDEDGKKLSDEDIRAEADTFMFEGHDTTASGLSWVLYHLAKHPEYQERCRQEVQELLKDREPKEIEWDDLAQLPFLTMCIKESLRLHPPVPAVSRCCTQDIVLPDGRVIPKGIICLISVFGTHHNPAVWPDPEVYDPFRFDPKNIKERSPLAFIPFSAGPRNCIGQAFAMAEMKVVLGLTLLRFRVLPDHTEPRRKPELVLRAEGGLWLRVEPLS

Cytochrome P450 4F3 [2] = molecular target: T1, Cytochrome P450 4F3; assay: Activity of human recombinant CYP4F3A assessed as enzyme-mediated drug metabolism treated with 25 uM vorapaxar after 120 mins by LC-MS/MS analysis in presence of NADPH; conditions: 2 h
Cytochrome P450 3A5 [3] = molecular target: T2, Cytochrome P450 3A5 (Homo sapiens, UniProt P20815); assay: Activity of human recombinant CYP3A5 assessed as enzyme-mediated drug metabolism treated with 25 uM vorapaxar after 120 mins by LC-MS/MS analysis in presence of NADPH; conditions: 2 h
T2 sequence (P20815 whole entry): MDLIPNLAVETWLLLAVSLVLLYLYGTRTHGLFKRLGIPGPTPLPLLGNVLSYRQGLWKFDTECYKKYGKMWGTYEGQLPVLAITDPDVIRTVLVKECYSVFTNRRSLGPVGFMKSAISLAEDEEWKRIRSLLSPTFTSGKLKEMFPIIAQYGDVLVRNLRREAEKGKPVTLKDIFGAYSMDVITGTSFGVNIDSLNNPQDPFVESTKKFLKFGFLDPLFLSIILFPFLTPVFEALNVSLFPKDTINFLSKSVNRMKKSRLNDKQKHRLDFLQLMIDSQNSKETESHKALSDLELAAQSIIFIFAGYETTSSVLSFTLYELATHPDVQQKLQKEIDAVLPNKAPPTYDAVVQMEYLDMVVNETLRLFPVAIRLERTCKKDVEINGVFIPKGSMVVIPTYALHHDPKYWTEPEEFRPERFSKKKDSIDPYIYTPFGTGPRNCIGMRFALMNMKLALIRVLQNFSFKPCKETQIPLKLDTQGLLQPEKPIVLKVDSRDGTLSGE

Liver microsome = assay: Drug metabolism in human liver microsomes assessed as 2-hydroxyethyl (1R,3aR,4aR,6R,8aR,9S,9aS)-9-((E)-2-(5-(3-fluorophenyl)pyridin-2-yl)vinyl)-1-methyl-3-oxododecahydronaphtho[2,3-c]furan-6-ylcarbamate formation at 25 uM after 120 mins by LC-MS/MS analysis in presence of ketoconazole; conditions: 2 h
[4] = Drug metabolism in human intestine microsomes assessed as ((4aR,6R)-9-{2-[(1R,4S)-5-((S)-3-Fluoro-phenyl)-pyridin-2-yl]-vinyl}-1-methyl-3-oxo-dodecahydro-naphtho[2,3-c]furan-6-yl)-carbamic acid(R)-2-hydroxy-ethyl ester formation by LC-MS/MS analysis in presence of 100 uM astemizole
Cytochrome P450 3A5 [5] = molecular target: T2, Cytochrome P450 3A5; assay: Activity of human recombinant CYP3A5 assessed as enzyme-mediated (3R,3aS,4S,4aR,7R,8aR,9aR)-7-amino-4-((E)-2-(5-(3-fluorophenyl)pyridin-2-yl)vinyl)-3-methyldecahydronaphtho[2,3-c]furan-1(3H)-one formation at 25 uM after 120 mins by LC-MS/MS analysis in presence of NADPH; conditions: 2 h
Cytochrome P450 1A1 = molecular target: T3, Cytochrome P450 1A1 (Homo sapiens, UniProt P04798); assay: Activity of human recombinant CYP1A1 assessed as enzyme-mediated (3R,3aS,4S,4aR,7R,8aR,9aR)-7-amino-4-((E)-2-(5-(3-fluorophenyl)pyridin-2-yl)vinyl)-3-methyldecahydronaphtho[2,3-c]furan-1(3H)-one formation at 25 uM after 120 mins by LC-MS/MS analysis in presence of NADPH; conditions: 2 h
T3 sequence (P04798 whole entry): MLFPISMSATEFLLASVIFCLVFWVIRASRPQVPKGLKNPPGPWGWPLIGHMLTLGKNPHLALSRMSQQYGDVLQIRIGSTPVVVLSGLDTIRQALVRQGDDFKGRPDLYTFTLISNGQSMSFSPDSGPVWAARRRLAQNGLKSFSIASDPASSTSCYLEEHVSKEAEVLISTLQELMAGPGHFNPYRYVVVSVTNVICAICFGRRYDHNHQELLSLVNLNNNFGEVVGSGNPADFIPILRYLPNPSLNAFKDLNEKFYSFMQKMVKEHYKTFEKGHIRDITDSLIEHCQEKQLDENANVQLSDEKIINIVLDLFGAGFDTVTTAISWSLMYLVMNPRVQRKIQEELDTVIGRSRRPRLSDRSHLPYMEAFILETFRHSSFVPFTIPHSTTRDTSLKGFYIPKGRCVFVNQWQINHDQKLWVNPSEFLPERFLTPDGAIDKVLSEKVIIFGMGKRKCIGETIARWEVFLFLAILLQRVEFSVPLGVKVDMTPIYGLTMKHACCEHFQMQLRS

Cytochrome P450 2B6 = molecular target: T4, Cytochrome P450 2B6 (Homo sapiens, UniProt P20813); assay: Activity of human recombinant CYP2B6 assessed as enzyme-mediated 2-hydroxyethyl (1R,3aR,4aR,6R,8aR,9S,9aS)-9-((E)-2-(5-(3-fluorophenyl)pyridin-2-yl)vinyl)-1-methyl-3-oxododecahydronaphtho[2,3-c]furan-6-ylcarbamate formation at 25 uM after 120 mins by LC-MS/MS analysis in presence of NADPH; conditions: 2 h
T4 sequence (P20813 whole entry): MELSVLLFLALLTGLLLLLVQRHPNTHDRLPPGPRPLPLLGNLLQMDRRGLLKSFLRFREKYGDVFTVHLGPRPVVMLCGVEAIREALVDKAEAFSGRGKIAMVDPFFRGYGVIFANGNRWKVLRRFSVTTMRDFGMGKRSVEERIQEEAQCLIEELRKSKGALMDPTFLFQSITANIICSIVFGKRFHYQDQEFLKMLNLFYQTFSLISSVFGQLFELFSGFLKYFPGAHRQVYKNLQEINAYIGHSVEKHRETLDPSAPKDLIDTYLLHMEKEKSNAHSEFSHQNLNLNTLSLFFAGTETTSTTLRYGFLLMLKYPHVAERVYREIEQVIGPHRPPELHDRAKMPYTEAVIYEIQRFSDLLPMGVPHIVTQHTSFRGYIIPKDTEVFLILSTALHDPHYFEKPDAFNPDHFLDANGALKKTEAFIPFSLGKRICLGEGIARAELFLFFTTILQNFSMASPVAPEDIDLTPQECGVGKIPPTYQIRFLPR

Cytochrome P450 4F3 [6] = molecular target: T1, Cytochrome P450 4F3; assay: Activity of human recombinant CYP4F3A assessed as enzyme-mediated (3R,3aS,4S,4aR,7R,8aR,9aR)-7-amino-4-((E)-2-(5-(3-fluorophenyl)pyridin-2-yl)vinyl)-3-methyldecahydronaphtho[2,3-c]furan-1(3H)-one formation at 25 uM after 120 mins by LC-MS/MS analysis in presence of NADPH; conditions: 2 h
Cytochrome P450 2C8 = Cytochrome P450 2C8 (Homo sapiens, UniProt P10632); assay: Activity of human recombinant CYP2C8 assessed as enzyme-mediated 2-hydroxyethyl (1R,3aR,4aR,6R,8aR,9S,9aS)-9-((E)-2-(5-(3-fluorophenyl)pyridin-2-yl)vinyl)-1-methyl-3-oxododecahydronaphtho[2,3-c]furan-6-ylcarbamate formation at 25 uM after 120 mins by LC-MS/MS analysis in presence of NADPH; conditions: 2 h
Cytochrome P450 2C8, sequence (P10632 whole entry): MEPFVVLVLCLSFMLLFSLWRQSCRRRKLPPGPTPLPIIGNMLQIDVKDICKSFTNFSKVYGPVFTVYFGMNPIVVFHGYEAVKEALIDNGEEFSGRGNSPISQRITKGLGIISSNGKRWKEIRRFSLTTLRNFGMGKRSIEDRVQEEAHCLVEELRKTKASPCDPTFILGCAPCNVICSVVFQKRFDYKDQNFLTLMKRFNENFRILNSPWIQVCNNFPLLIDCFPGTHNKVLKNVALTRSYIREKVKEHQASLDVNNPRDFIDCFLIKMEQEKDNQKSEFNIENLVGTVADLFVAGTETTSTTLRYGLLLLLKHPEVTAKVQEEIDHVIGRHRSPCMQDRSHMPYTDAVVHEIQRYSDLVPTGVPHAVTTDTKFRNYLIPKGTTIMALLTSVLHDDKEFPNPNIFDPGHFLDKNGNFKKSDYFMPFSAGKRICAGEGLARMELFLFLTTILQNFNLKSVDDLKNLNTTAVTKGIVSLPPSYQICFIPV

Cytochrome P450 3A5 [7] = molecular target: T2, Cytochrome P450 3A5; assay: Activity of human recombinant CYP3A5 assessed as enzyme-mediated 2-hydroxyethyl (1R,3aR,4aR,6R,8aR,9S,9aS)-9-((E)-2-(5-(3-fluorophenyl)pyridin-2-yl)vinyl)-1-methyl-3-oxododecahydronaphtho[2,3-c]furan-6-ylcarbamate formation at 25 uM after 120 mins by LC-MS/MS analysis in presence of NADPH; conditions: 2 h

For `C[C@H]1OC(=O)[C@@H]2C[C@@H]3C[C@H](NC(=O)OCCO)CC[C@H]3[C@H](/C=C/c3ccc(-c4cccc(F)c4)cn3)[C@H]12`, the Drug metabolism (Cytochrome P450 4F3 [1]) was “metabolite_detected”, the Drug metabolism (Cytochrome P450 4F3 [2]) was “metabolite_detected” and the Drug metabolism (Cytochrome P450 3A5 [3]) was “metabolite_detected”.
In the case of `CCOC(=O)N[C@@H]1CC[C@@H]2[C@@H](C1)C[C@H]1C(=O)O[C@H](C)[C@H]1[C@H]2/C=C/c1ccc(-c2cccc(F)c2)cn1` [VORAPAXAR], the Drug metabolism (Liver microsome) is reported as “metabolite_not_detected” and the “inhibition (INH)” value [4] is reported as 77%.
For `CCOC(=O)N[C@@H]1CC[C@@H]2[C@@H](C1)C[C@H]1C(=O)O[C@H](C)[C@H]1[C@H]2/C=[14CH]/c1ccc(-c2cccc(F)c2)cn1`, the Drug metabolism (Cytochrome P450 3A5 [5]) was “metabolite_detected”, the Drug metabolism (Cytochrome P450 1A1) was “metabolite_detected” and the Drug metabolism (Cytochrome P450 2B6) was “metabolite_detected”. For the same compound, the Drug metabolism (Cytochrome P450 4F3 [6]) was “metabolite_detected”, the Drug metabolism (Cytochrome P450 2C8) was “metabolite_detected” and the Drug metabolism (Cytochrome P450 3A5 [7]) was “metabolite_detected”.
